Earlier results, collected in article PMC10017685 (Nature Communications, 2023).
Read-outs that look alike come from different tables or passages of the source.

Tested on: human erythrocytes
Parameters: method as in DBAASP
Conditions: cited from earlier work
[1] = toxicity class label 1 or 0, meaning of the labels not given, DBAASP HC50 data, human erythrocytes, ref DBAASP

Sequence	Class (dedicated toxicity dataset used for toxicity classifier evaluation) [1]	Class (dedicated toxicity dataset used for toxicity classifier evaluation)
SKVGRHLRRFGHRAHRKL [DBAASP_7663]	0	–
WLRRIKAWLRRIKA [DBAASP_7164]	0	–
HFLGTLVNKAKKIL [DBAASP_5023]	0	–
FLGSIVGALASALPSLISKIRN [DBAASP_2209]	1	–
ALLKTMLKKLGTMAL [DBAASP_10104]	0	–
GLKKIFKAGLGSLVKGIAAHVAS [DBAASP_4416]	1	–
FPVTWPTKWWKG [DBAASP_7115]	0	–
FFHHVFRGIVHVGKTIHRLVTG [DBAASP_9006]	0	–
GLKKIFKAGLGSLKKGIAAHVAS [DBAASP_4412]	0	–
GWGSFFKKAAHVGKHVGKAALTHYL [DBAASP_1004]	0	–
KIAKGALKALKIAKVALKAL [DBAASP_11228]	1	–
KIALKALKALKALGKALKAL [DBAASP_11232]	1	–
GIWKTIKSMGKVFAGAIKQNL [DBAASP_705]	0	–
GILSKLLKKLKKIIAK [DBAASP_8909]	–	0
GIGKFLHSAKKFGKAFVGEIMNS [DBAASP_5368]	0	–
IAKIAGKIAKIAGKIA [DBAASP_14991]	0	–
RQIRIWFQNRRMRWRR [DBAASP_8798]	0	–
GFWGKLFKLGLHGIGLLHLHL [DBAASP_999]	0	–
GIMSSLMKKLAAHIAK [DBAASP_8893]	0	–
IAKIAGKIAKIAGKIAK [DBAASP_14997]	–	0
FLSSIGKILGNLL [DBAASP_3103]	0	–
FLPKWALKWAAK [DBAASP_16468]	0	–

Sequence	Class (dedicated toxicity dataset used for toxicity classifier evaluation) [1]	Class (dedicated toxicity dataset used for toxicity classifier evaluation)
NLLGSLLKTGLKVGSNLL [DBAASP_5712]	0	–
GIMSSLMKKLAAHIKK [DBAASP_8896]	–	0
FLSLIPHIASGIASLVKNF [DBAASP_12390]	1	–
HFLGTLVNLAKKKL [DBAASP_5025]	0	–
GVVKRIKTVV [DBAASP_8620]	0	–
VKRFKKFFRKFKKFV [DBAASP_16446]	0	–
GFKDLLKGAAKALVKAVLF [DBAASP_4918]	1	–
GLFDVIKKLLKKIKGL [DBAASP_8594]	1	–
KKKLAKLKLGAKLKLKGKLGA [DBAASP_13729]	0	–
GLLKRIKTLL [DBAASP_7447]	1	–
GWKKWLRKGAKHLGQAAIKGLAS [DBAASP_1435]	0	–
SKVWRHWRRFWHRAHRKL [DBAASP_14980]	0	–
KIAKVALKALKIAKGALKAL [DBAASP_9754]	0	–
GFGMALKLLKKVL [DBAASP_3442]	0	–
GFRKIVQKIRDFLRNLV [DBAASP_11853]	0	–
IKKIVSKIKKLL [DBAASP_7244]	0	–
FLSLIPKIISAISALINHF [DBAASP_12629]	1	–
GIGGALLSFGKSALKGLAKGLAEHF [DBAASP_12131]	0	–
FLPLILPSIVTALSSFLKQG [DBAASP_8197]	0	–
HFLGKLVNLAKKIL [DBAASP_5018]	0	–
GVSKILHSAGKFGKAFLGEIMKS [DBAASP_3776]	0	–
GLKKIFKAGLGSLVKGIKAHVAS [DBAASP_4414]	0	–

Sequence	Class (dedicated toxicity dataset used for toxicity classifier evaluation) [1]	Class (dedicated toxicity dataset used for toxicity classifier evaluation)
KWAVRIIRKFIKGFIS [DBAASP_13726]	0	–
KQIKIWFQNKKMKWKK [DBAASP_8799]	0	–
KKLFKKILKYL [DBAASP_197]	0	–
GLKALKKVFQGIHKAIKLINNHVQ [DBAASP_6928]	0	–
VRRFAWWWPFLRR [DBAASP_5142]	0	–
CVKVQVKVGSGVKVQVKVC [DBAASP_350]	0	–
ILGKLLSTAAKLLSNL [DBAASP_4362]	1	–
ALWKTLLKKVLKAAA [DBAASP_7356]	1	–
KWKLFKKIFKRIVQRIKDFLRN [DBAASP_9530]	0	–
FLKGIKGMLGKLL [DBAASP_9112]	0	–
WLRRIKAWLRRKRK [DBAASP_10627]	0	–
RIRFPWPWRWPWWPRFRG [DBAASP_8616]	0	–
GLLKFIKTLL [DBAASP_3138]	0	–
GLLKRIKKLL [DBAASP_3148]	0	–
VKKFPWWWPFLKK [DBAASP_5136]	0	–
FLKGIVGMLGKLL [DBAASP_9111]	0	–
GLLDFFKGAGKELLTHLASQI [DBAASP_16390]	0	–
GILSSLLKKWKKIIAK [DBAASP_8916]	–	0
FFPIIAGMAAKVICAITKKC [DBAASP_4211]	1	–
FFHHIFRGIVHVGKKIHRLVKG [DBAASP_9984]	0	–
FIGALLRPALKLLAGK [DBAASP_5719]	0	–
RIGVLLARLPKLFSLFKLMGKKV [DBAASP_4189]	0	–

Sequence	Class (dedicated toxicity dataset used for toxicity classifier evaluation) [1]	Class (dedicated toxicity dataset used for toxicity classifier evaluation)
KRIVQRIKKWLR [DBAASP_6827]	0	–
LWKIWKKIWRVWKNWR [DBAASP_17516]	1	–
FLKWALKVAAK [DBAASP_16466]	0	–
KLLGPLLKIAAKVGSNLL [DBAASP_4921]	0	–
RFCVYAYVRVRGVLVRYRRCF [DBAASP_13515]	0	–
ALWKTMLKKLGT [DBAASP_10094]	0	–
SKVWRHWRRFWHRAHRLH [DBAASP_9101]	0	–
FFFFKKKKK [DBAASP_15834]	1	–
ALWKSLLKNVGKA [DBAASP_11806]	0	–
KIWFQNKKMKWKK [DBAASP_8802]	0	–
FLPGILKVAANVVPGVI [DBAASP_16463]	0	–
FLSLIPKIISAISALIKHF [DBAASP_12630]	1	–
GLWSKIKDAAKTAGKAALGFVNEMV [DBAASP_14233]	0	–
YLRLIRYMAKMI [DBAASP_17183]	0	–
KWKVFKKIEKMARNIRNKIVK [DBAASP_11864]	0	–
GLWSKIKKAAKTAGKAALGFVNKMV [DBAASP_14234]	0	–
GVGKFLHSAKKFGQALASEIMKS [DBAASP_3769]	0	–
HKLGTLVNLAKKIL [DBAASP_5015]	0	–
FPVTWPTKWWKS [DBAASP_9716]	0	–
GMMKRIKTMM [DBAASP_8621]	0	–
FLPIIAGIAAKFLPKIFCTISKKC [DBAASP_4214]	1	–
GFRDVLKGAAKAFVKTVAGHIAN [DBAASP_2304]	0	–
